In patent publication US8871934B2, “Fluorene compound and pharmaceutical use thereof” (Japan Tobacco Inc., priority 2008, dated 2014) one finds IC50 data, which are given here for 21 compounds.

The target in this assay is human PDHK2 (hPDHK2) (Homo sapiens (Human), UniProt Q15119). Put plainly: Inhibitory action of PDHK activity in vitro (kinase reaction, residual PDH activity measured). Type of assay: biochemical.
[1] abbreviates: PDHK inhibitory activity, class symbol of IC50.
Where [2] appears, read: read-out: PDHK inhibitory activity IC50.

Like-named read-outs stand apart in the source and are kept apart here.

A word on the IC50: it is the midpoint of a concentration-inhibition curve. Consider `CC(=O)N(C)c1ccc2c(c1)C(O)(C(F)(F)F)c1ccccc1-2` (stereo not drawn) [compound 96], for which the IC50 under setting [1] was > 1000 nM and the half-maximal inhibitory concentration (IC50) under setting [2] amounted to 6570 nM.

Consider `Cc1cc(-c2cnn(C3(CO)CCCC3)c2)c2c(c1)[C@@](O)(C(F)(F)F)c1ccccc1-2` (stereo in doubt) [compound 546], for which the concentration for half-maximal inhibition (IC50) is 15 nM (PDHK inhibitory activity IC50 (μmol/L)) and < 100 nM under setting [1].

With `CC(=O)N(C)CCOc1cc(-c2cnn(C)c2)c2c(c1)C(O)(C(F)(F)F)c1ccccc1-2` (stereo not drawn) [compound 423], the half-maximal inhibitory concentration (IC50) under setting [1] was < 100 nM and the half-maximal inhibitory concentration (IC50) under setting [2] was determined as 21 nM.

`Nc1ccc2c(c1)C(O)(C(F)(F)F)c1ccccc1-2` (stereo not drawn) [compound 55]: the IC50 reads like this: under setting [1], > 1000 nM; under setting [2], 19800 nM.

Turning to `OCCCCOc1ccc2c(c1)C(O)(C(F)(F)F)c1ccccc1-2` (stereo not drawn) [compound 270], the half-inhibitory concentration (IC50) under setting [1] fell in the range of 100 to 1000 nM and the IC50 under setting [2] turned out to be 533 nM.

With `NC(=O)c1cc(-c2cnn(CCO)c2)cc2c1-c1ccccc1C2(O)C(F)(F)F` (stereo not drawn) [compound 536], the IC50 under setting [1] was < 100 nM and the IC50 under setting [2] turned out to be 54 nM.

For the compound `NC(=O)C1CN(C(=O)c2ccc3c(c2)C(O)(C(F)(F)F)c2ccccc2-3)C1` (stereo not drawn) [compound 123], the IC50 is, setting by setting: under setting [1], 100 to 1000 nM; under setting [2], 877 nM.

As for `CN(CCOc1ccc2c(c1)C(O)(C(F)(F)F)c1ccccc1-2)C(=O)OC(C)(C)C` (stereo not drawn) [compound 324], the IC50 under setting [1] was 100 to 1000 nM and the half-maximal inhibitory concentration (IC50) under setting [2] was found to be 203 nM.

In the case of `CN(CCO)C(=O)c1ccc2c(c1)C(O)(C(F)(F)F)c1ccccc1-2` (stereo not drawn) [compound 297], the IC50 is > 1000 nM under setting [1] and 3030 nM under setting [2].

In the case of `Cn1cc(-c2cc(OCCCC(=O)O)cc3c2-c2ccccc2C3(O)C(F)(F)F)cn1` (single isomer, unassigned) [compound 504, 4-[9-hydroxy-4-(1-methyl-1H-pyrazol-4-yl)-9-trifluoromethyl-9H-fluoren-2-yloxy]-butyric acid], the half-inhibitory concentration (IC50) under setting [1] was < 100 nM and the half-maximal inhibitory concentration (IC50) under setting [2] came to 19 nM.

For the compound `Cc1ncc(-c2cccc3c2-c2ccccc2C3(O)C(F)(F)F)o1` (stereo not drawn) [compound 275], the half-maximal inhibitory concentration (IC50) is 100 to 1000 nM under setting [1] and 278 nM under setting [2].

As to `O=C(O)c1ccc(-c2ccc3c(c2)C(O)(C(F)(F)F)c2ccccc2-3)cc1` (stereo not drawn) [compound 188], the 50% inhibitory concentration (IC50) is 100 to 1000 nM under setting [1] and 383 nM under setting [2].

On to `COC(=O)c1ccc(-c2ccc3c(c2)C(O)(C(F)(F)F)c2ccccc2-3)cc1Cl` (stereo not drawn) [compound 236], for which the IC50 under setting [1] lay within 100 to 1000 nM and the half-inhibitory concentration (IC50) under setting [2] turned out to be 355 nM.

`CC(C)(C)OC(=O)c1ccc(-c2cc(-c3cccnc3)c3c(c2)C(O)(C(F)(F)F)c2ccccc2-3)cc1` (stereo not drawn) [compound 341]: the half-maximal inhibitory concentration (IC50) was < 100 nM under setting [1] and 79 nM under setting [2].

As to `NC(=O)c1ccc(-c2ccc3c(c2)C(O)(C(F)(F)F)c2ccccc2-3)cc1Cl` (stereo not drawn) [compound 239], the 50% inhibitory concentration (IC50) by setting is: under setting [1], 100 to 1000 nM; under setting [2], 178 nM.

Consider `CC(C)(C)OC(=O)N1CCN(c2ccc3c(c2)C(O)(C(F)(F)F)c2ccccc2-3)CC1` (stereo not drawn) [compound 163], for which the half-inhibitory concentration (IC50) under setting [1] was in the range of 100 to 1000 nM and the IC50 under setting [2] was determined as 232 nM.

As for `Cn1cc(-c2cc(OCCCC(=O)O)cc3c2-c2ccccc2C3(O)C(F)(F)F)cn1` (stereo not drawn) [compound 449], the half-inhibitory concentration (IC50) is < 100 nM under setting [1] and 47 nM under setting [2].

Turning to `OCCn1cc(-c2cc(OCCC34CC5CC(CC(O)(C5)C3)C4)cc3c2-c2ccccc2C3(O)C(F)(F)F)cn1` (single isomer, unassigned) [compound 542], the half-maximal inhibitory concentration (IC50) under setting [1] is < 100 nM and the half-inhibitory concentration (IC50) under setting [2] was 15 nM.

Regarding `CC(=O)N(C)CCn1cc(-c2cccc3c2-c2ccccc2C3(O)C(F)(F)F)cn1` (stereo not drawn) [compound 535], the half-maximal inhibitory concentration (IC50) is 100 to 1000 nM under setting [1] and 197 nM under setting [2].

As to `CC(C)(CC(=O)O)n1cc(-c2cc(F)cc3c2-c2ccccc2C3(O)C(F)(F)F)cn1` (single isomer, unassigned) [compound 610], the IC50 was < 100 nM (PDHK inhibitory activity (class symbol)) and 41 nM under setting [2].

Take `CC(=O)N(C)CC(C)Oc1ccc2c(c1)C(O)(C(F)(F)F)c1ccccc1-2` (stereo not drawn) [compound 380]: the IC50 was > 1000 nM under setting [1] and 1490 nM under setting [2].
